According to ChEMBL document CHEMBL1201862, “PubChem BioAssay data set” (2004):
Active and inactive are the calls of the source.

Tests used:
Genome polyprotein = Genome polyprotein (dengue virus type 2, UniProt P29990); assay: Dengue-2 NS5 methyltransferase inhibitors, primary screen, biochemical, confirmation dose response (AID 588689); format: functional
Vero [1] = assay: cells; format: functional; details: Chlorocebus sabaeus
Vero [2] = assay: cells; format: functional, cell-based; details: Chlorocebus sabaeus
[3] = target: Bifunctional protein GlmU (Mycobacterium tuberculosis, UniProt P9WMN3); assay: Inhibitors of Mycobacterial Glucosamine-1-phosphate acetyl transferase (GlmU). Secondary screen.; parameters: species or system Mycobacterium tuberculosis H37Rv
Vero [4] = assay: Vero cell cytotoxicity, cytotoxicity control for flavivirus capping enzyme inhibitors (AID 588742); format: functional; details: Chlorocebus sabaeus
Major prion protein = Major prion protein (Homo sapiens, UniProt P04156); format: functional, cell-based
[5] = MC4R antagonists, dose response, counter-screen for LGR2 antagonist project, cell-based, plate reader, cherry pick (AID 743444); format: functional;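 also: transfected HEK 293 cells stimulated with alpha-MSH peptide; potency of inhibitors of the alpha-MSH evoked signal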
[6] = target: Luciferin 4-monooxygenase (Photuris pensylvanica, UniProt Q27757); assay: firefly luciferase enzyme inhibitors, dose response, counter-screen for HSF-1 reporter inhibitor project, biochemical, Cell Titer Glo, luminescence, cherry-picks (AID 588847)
[7] = LGR2 antagonists, dose response, cell-based, HEK293, CRE-luciferase reporter, cherry pick, set 2 (AID 743343); format: functional;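 also: transfected cells were stimulated with diluted bursicon conditioned medium after compound addition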
[8] = HeLa cell cytotoxicity, dose response, cytotoxicity control for MgcRacGAP inhibitor project (AID 624300); format: functional
Beta-arrestin-1 = Beta-arrestin-1 (Homo sapiens, UniProt P49407); assay: inhibitors of arrestin peptide binding to AP2, dose response, biochemical, cherry pick 1, beta2-adaptin appendage, flow cytometry (AID 588783); format: functional
[9] = target: T1, Histone-lysine N-methyltransferase NSD2 (Homo sapiens, UniProt O96028); format: biochemical
T1 sequence (O96028 whole entry): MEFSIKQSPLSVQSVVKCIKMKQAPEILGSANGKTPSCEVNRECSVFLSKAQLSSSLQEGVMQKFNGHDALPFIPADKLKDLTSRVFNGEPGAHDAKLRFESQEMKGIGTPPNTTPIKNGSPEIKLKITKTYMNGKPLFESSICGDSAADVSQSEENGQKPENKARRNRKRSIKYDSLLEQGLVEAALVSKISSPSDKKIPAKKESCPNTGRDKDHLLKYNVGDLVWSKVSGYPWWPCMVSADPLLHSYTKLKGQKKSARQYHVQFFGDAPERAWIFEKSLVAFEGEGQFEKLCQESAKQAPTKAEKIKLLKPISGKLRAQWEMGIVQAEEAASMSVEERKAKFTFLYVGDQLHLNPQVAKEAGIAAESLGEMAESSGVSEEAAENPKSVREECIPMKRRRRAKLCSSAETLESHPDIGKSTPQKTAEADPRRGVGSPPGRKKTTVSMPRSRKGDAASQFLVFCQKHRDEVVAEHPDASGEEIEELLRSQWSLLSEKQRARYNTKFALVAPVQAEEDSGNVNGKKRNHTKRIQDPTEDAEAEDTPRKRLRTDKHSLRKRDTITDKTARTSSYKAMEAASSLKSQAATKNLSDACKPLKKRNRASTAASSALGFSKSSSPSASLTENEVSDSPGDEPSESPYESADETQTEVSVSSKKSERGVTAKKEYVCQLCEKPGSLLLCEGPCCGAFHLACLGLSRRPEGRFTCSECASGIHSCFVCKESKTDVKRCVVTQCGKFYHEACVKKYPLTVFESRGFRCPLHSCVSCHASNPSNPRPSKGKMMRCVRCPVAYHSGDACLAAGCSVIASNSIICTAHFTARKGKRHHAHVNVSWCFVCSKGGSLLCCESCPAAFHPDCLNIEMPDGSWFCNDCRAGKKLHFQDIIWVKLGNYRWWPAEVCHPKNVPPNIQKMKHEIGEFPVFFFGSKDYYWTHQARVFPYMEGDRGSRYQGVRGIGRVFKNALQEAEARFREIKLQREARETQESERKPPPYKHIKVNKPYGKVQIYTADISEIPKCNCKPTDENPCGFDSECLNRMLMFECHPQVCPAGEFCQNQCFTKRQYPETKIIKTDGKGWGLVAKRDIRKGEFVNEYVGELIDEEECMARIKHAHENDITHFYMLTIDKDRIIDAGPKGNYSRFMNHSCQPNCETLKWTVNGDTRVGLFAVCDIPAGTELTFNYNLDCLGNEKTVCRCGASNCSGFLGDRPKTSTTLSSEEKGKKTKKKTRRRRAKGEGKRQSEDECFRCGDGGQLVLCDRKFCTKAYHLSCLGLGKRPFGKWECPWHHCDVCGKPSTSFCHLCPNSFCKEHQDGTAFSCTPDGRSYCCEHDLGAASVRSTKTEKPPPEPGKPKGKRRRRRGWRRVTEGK

Caspase-6 = target: T2, Caspase-6 (Homo sapiens, UniProt P55212); assay: human caspase-6 inhibitors, dose response, biochemical, VEID-R110 fluorescence, cherry-pick (AID 720632)
T2 sequence (P55212 whole entry): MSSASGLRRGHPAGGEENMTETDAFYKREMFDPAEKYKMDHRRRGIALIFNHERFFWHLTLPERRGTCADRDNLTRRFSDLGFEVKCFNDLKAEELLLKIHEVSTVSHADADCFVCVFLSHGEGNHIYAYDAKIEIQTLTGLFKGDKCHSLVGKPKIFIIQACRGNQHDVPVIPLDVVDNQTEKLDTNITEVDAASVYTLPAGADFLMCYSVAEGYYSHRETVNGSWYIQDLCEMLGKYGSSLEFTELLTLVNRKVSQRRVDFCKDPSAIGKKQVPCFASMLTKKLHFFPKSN

Paired box protein Pax-8 = Paired box protein Pax-8 (Homo sapiens, UniProt Q06710); assay: inhibitors of PAX8-driven TPO luciferase reporter, dose response, RMG-I cells, cherry-pick (AID 687027); format: functional, cell-based;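 also: luciferase reporter driven by Pax8 target thyroperoxidase promoter measured by SteadyGlo luminescence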
Protein skinhead-1 = target: T3, Protein skinhead-1 (Caenorhabditis elegans, UniProt P34707); format: functional
T3 sequence (P34707 whole entry): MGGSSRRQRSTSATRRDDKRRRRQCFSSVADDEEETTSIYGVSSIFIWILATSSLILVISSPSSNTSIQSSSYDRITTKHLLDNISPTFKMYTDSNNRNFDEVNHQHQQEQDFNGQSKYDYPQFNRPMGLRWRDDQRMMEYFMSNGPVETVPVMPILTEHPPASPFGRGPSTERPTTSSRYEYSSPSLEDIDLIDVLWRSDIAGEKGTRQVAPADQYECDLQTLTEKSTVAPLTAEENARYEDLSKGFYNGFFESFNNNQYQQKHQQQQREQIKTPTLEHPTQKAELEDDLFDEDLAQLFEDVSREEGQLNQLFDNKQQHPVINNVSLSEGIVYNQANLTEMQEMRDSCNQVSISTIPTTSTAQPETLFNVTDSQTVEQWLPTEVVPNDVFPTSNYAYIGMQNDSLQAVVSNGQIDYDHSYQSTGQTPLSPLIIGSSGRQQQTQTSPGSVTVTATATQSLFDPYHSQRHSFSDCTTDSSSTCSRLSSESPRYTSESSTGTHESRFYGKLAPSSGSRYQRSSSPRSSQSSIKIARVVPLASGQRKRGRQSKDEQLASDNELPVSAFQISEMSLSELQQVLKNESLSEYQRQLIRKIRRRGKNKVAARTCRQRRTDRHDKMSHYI

[10] = target: T4, Polyadenylate-binding protein 1 (Homo sapiens, UniProt P11940); assay: PABP1 MLLE–PAM2 binding inhibitor potency, dose response, biochemical, fluorescence polarization, FITC-PAM2 peptide (AID 602259); format: functional; details: read-out: IC50_Mean
[11] = target: T5, Rac GTPase-activating protein 1 (Homo sapiens, UniProt Q9H0H5); assay: MgcRacGAP GTPase-activating activity inhibitors, confirmation, biochemical, ADP Hunter fluorescence, primary and confirmatory (AID 624330); format: functional
T5 sequence (Q9H0H5 whole entry): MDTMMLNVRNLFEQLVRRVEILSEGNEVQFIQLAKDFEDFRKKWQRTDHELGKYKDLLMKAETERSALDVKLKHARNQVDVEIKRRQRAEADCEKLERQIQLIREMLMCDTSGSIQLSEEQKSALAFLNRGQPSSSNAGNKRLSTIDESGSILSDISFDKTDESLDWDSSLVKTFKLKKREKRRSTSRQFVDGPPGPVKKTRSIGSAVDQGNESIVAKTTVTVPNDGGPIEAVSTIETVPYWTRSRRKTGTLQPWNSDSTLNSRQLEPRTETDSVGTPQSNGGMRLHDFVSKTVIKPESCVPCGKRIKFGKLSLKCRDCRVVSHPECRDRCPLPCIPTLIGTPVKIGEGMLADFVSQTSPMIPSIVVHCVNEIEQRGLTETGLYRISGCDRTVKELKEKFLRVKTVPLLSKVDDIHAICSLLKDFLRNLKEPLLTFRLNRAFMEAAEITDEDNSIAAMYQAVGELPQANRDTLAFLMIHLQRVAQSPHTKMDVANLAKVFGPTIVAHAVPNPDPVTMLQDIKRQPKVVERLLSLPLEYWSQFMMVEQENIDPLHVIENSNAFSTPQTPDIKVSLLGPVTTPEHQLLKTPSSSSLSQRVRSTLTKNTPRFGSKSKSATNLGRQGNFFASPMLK

[12] = target: T4, Polyadenylate-binding protein 1; assay: PABP1 MLLE–PAM2 interaction inhibitors, dose response, miRNA deadenylation inhibitor project, biochemical, fluorescence polarization, Cy5-PAM2 peptide, secondary (AID 602260); format: functional; details: read-out: IC50_Mean

Compound	IC50 (Genome polyprotein)	CC50 (Vero [1])	IC50 (Vero [2])	IC50 (cells)	IC50 [3]	CC50 (Vero [4])	IC50 (Major prion protein)	AC50 [5]	AC50 [6]	AC50 [7]	CC50 [8]	IC50 (Beta-arrestin-1)	AC50 [9]	AC50 (Caspase-6)	AC50 (Paired box protein Pax-8)	IC50 (Protein skinhead-1)	IC50 [10]	IC50 [11]	IC50 [12]
O=c1oc2ccccc2c(O)c1[C@H]1c2ccc(O)cc2Oc2c1c(=O)oc1ccccc21	80.7 µM (active)	> 25 µM (active)	> 25 µM (active)	124 µM (inactive)	117 µM (active)	> 40 µM (active)	9.01 µM (active)	–	–	–	–	–	–	–	–	–	–	–	–
CCS(=O)(=O)N1Cc2ccccc2CC1C(=O)Nc1nc2ccccc2s1 (stereo unspecified)	–	–	–	–	–	–	–	4.56 µM (active)	15.2 µM (active)	4.13 µM (active)	–	–	–	–	–	–	–	–	–
O=C1C(Br)=C(N2CCN(CCOCCO)CC2)C(=O)c2c(O)ccc(O)c21	5.11 µM (active)	–	–	–	–	8.58 µM (active)	–	–	–	–	12.6 µM (active)	7.46 µM (active)	7.21 µM (active)	0.343 µM (active)	7.03 µM (active)	79.6 µM (inactive)	38.7 µM (inactive)	34.8 µM (active)	> 66 µM (inactive)
